The target of one experiment is T1, enolase (Eno) (Escherichia coli, UniProt P0A6P9).
T1 construct: full-length His-tagged protein from ASKA library clone (E. coli K-12 ORF collection)
In words: ligand-detected T1rho 1H NMR. The format is binding. To be noted: 15 uM monomer, 200 uM metabolite in mix, pH 7.5, 298 K, 5 mM MgCl2.

Experiment [1] has as its target T2, 6-phosphofructokinase I (PfkA) (Escherichia coli, UniProt P0A796).
T2 construct: full-length His-tagged protein from ASKA library clone (E. coli K-12 ORF collection)
T2 sequence (P0A796 1-320): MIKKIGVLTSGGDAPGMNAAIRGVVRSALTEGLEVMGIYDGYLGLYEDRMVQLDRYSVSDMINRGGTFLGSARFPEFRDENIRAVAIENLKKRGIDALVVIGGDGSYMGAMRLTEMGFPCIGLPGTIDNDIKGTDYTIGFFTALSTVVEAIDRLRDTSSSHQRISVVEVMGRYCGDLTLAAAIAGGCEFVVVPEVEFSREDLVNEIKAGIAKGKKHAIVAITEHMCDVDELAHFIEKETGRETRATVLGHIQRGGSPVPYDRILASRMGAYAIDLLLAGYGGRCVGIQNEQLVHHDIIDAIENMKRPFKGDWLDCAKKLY
Nature of the experiment: ligand-detected T1rho 1H NMR. Format: binding. To be noted: 15 uM monomer, 200 uM metabolite in mix, pH 7.5, 298 K, 5 mM MgCl2.

Experiment [2] deals with T3, NADP+-dependent glucose-6-phosphate dehydrogenase (Zwf) (Escherichia coli, UniProt P0AC53).
T3 construct: full-length His-tagged protein from ASKA library clone (E. coli K-12 ORF collection)
T3 sequence (P0AC53 whole entry): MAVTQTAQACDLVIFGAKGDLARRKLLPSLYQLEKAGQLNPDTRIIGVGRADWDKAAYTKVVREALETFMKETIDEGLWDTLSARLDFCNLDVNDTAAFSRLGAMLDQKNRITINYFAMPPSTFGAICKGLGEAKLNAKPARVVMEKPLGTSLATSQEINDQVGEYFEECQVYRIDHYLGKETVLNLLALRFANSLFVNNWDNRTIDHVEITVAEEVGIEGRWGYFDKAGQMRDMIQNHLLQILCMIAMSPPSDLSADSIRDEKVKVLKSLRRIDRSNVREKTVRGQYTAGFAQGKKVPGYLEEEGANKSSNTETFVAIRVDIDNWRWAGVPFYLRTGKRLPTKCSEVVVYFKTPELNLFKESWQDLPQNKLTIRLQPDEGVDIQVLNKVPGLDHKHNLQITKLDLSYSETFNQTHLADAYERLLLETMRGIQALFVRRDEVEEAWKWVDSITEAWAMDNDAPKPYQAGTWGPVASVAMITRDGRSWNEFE
In words: ligand-detected T1rho 1H NMR; inhibition checked by NADPH formation assay. The format is biochemical. Particulars: NMR: 15 uM monomer, 200 uM metabolite in mix, pH 7.5, 298 K, 5 mM MgCl2; activity: 2 and 10 mM GTP, 2 mM G6P, 1 mM NADP+, 30 C.

T1 sequence (P0A6P9 2-432): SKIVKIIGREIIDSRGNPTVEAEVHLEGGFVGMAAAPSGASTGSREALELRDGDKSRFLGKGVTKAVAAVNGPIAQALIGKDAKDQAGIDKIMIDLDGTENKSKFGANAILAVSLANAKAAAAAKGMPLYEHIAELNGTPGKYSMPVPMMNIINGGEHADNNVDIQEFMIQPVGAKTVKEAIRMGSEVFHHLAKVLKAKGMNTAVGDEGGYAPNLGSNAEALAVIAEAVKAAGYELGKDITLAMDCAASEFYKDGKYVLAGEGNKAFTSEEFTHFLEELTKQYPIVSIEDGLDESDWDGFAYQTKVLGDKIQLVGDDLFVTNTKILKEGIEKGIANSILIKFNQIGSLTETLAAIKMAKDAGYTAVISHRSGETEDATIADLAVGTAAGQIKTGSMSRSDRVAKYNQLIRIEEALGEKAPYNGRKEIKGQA

Turning to `C=C(OP(=O)(O)O)C(=O)O` [phosphoenolpyruvate], at enolase (Eno), the ΔRF result is “two of which were detected in both datasets (Eno–PEP and PfkA–AMP)”.
Consider `Nc1ncnc2c1ncn2[C@@H]1O[C@H](COP(=O)(O)O)[C@@H](O)[C@H]1O` [AMP], for which the ΔRF result in experiment [1] is “two of which were detected in both datasets (Eno–PEP and PfkA–AMP)”.
Regarding `Nc1nc2c(ncn2[C@@H]2O[C@H](COP(=O)(O)OP(=O)(O)OP(=O)(O)O)[C@@H](O)[C@H]2O)c(=O)[nH]1` [GTP], the ΔRF result in experiment [2] is “ATP and GTP indeed inhibited Zwf even at physiological concentrations of MgCl2”.

The values are drawn from PMC6706640, “Systematic mapping of protein‐metabolite interactions in central metabolism of Escherichia coli” (Molecular Systems Biology, 2019).
